# pIC50: −log10 of the molar value.
# Experiments:
# xanthine oxidase = target: T1, xanthine oxidase (Bos taurus, UniProt P80457); assay: In vitro determination of xanthine oxidase (XOD) inhibition; format: biochemical; conditions: xanthine oxidase from butter milk, xanthine substrate, pH 7.4, 37° C.
# T1 construct: purchased Sigma Chemical Company; host or cells: butter milk
# Procedure: (1) Preparation of test compounds:
# Test compounds (compounds of Ex. No. listed in Table 1) were dissolved in dimethylsulfoxide and diluted with a 50 mM phosphate buffer to prepare aqueous solutions respectively having predetermined concentrations.
# The inhibition rate was determined by the following equation: [formula]
# The inhibition (%) was determined on each test compound prepared according to (1), and the IC50 value on the xanthine oxidase (XOD) inhibition was calculated from the value of inhibition.
# interleukin 1 production = assay: Interleukin 1 production inhibitory activity (LPS, abdominal exuded macrophage, ELISA); format: cell-based, BALB/c mouse; conditions: 10^-6 M, 1 μg/ml LPS, 24 hours, mouse macrophage
# Procedure: 1 ml of a 5% oyster glycogen solution was intra-abdominally administered to a BALB/c mouse (male, 8 weeks in age), and 4 days after the administration, the infiltrated abdominal exuded cells were adhered to a plastic dish for 2 hours, and 1 μg/ml of LPS was allowed to act on macrophage (1×10^6 cells). Interleukin 1 extricated on the supernatant in 24 hours was measured by an ELISA technique. The test compound (compounds of Ex. No. described in Table 3) was prepared so as to have a concentration of 10^-6 M, and the interleukin 1 production inhibitory activity was, expressed in terms of the percentage inhibition based on the amount of production of the control.
# serum uric acid = assay: Determination of oral administration: lowering of serum uric acid in mice; format: in vivo, ICR male mice; conditions: Mus musculus; ICR male mice, oral, 1 mg/kg, 2 hours after administration, serum; read-out: Activity of lowering uric acid
# Procedure: Test compounds suspended in a 5% gum arabic solution was forcibly administered by oral administration (compounds of Ex. No. of Table 2, dose: 1 mg/kg) to ICR male mice (age: about 7 weeks) (one group: 6 mice) by means of an oral probe. 2 hours after the administration, thoracotomy was conducted under etherization to collect blood from the heart, and serum was removed by a conventional process. The serum uric acid was measured by a biochemical automatic analyzer (Flexigem; Electro-Nucleonics, Inc.) by using a uric acid measurement kit (UA reagent; International Reagent) to determine the percentage of the lowering of uric acid. [formula]
# T1 sequence (P80457 whole entry): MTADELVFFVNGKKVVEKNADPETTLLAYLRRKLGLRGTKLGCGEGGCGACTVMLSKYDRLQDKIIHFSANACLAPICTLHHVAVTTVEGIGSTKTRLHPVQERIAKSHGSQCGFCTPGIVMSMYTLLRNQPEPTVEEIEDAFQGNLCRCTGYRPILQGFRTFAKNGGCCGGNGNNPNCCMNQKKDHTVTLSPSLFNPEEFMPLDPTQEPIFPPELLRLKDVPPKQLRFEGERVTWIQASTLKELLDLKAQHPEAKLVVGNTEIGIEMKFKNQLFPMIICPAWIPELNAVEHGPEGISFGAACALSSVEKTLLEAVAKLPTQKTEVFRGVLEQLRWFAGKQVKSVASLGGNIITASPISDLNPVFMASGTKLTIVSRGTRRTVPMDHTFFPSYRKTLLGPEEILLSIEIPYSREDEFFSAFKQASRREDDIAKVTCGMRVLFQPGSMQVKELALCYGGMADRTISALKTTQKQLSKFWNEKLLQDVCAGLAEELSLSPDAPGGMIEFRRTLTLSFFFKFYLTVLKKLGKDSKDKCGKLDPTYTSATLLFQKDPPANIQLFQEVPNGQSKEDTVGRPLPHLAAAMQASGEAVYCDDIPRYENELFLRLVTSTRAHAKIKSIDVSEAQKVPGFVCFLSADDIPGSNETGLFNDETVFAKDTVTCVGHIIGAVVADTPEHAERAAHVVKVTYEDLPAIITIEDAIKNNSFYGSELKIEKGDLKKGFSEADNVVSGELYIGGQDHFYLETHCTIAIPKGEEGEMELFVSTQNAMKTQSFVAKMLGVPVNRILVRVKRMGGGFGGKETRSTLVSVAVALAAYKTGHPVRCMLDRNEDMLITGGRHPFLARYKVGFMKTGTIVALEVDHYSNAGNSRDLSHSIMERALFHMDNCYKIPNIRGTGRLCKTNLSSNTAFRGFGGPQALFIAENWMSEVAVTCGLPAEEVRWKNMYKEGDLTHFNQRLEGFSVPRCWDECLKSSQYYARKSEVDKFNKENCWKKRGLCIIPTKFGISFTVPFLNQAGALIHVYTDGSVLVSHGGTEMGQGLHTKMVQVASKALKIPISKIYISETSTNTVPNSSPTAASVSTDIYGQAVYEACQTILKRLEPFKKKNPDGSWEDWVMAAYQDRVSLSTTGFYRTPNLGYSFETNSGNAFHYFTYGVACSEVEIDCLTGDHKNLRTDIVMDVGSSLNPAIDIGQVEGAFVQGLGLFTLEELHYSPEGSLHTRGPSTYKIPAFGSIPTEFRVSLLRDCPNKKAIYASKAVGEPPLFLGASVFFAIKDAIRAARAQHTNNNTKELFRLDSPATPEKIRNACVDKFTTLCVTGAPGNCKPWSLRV
pIC50 (xanthine oxidase),SMILES,inhibition at 1 µM (interleukin 1 production),inhibition in vivo at 1 mg/kg (serum uric acid)
7.17,"Cc1nc(-c2cccc(OC(C)C)c2)sc1C(=O)O [Example 1, 2-(3-isopropoxyphenyl)-4-methyl-5-thiazolecarboxylic acid]",83%,
7.59,"Cc1nc(-c2cc(Cl)c(O)c(Cl)c2)sc1C(=O)O [Example 28, 2-(3,5-Dichloro-4-hydroxyphenyl)-4-methyl-5-thiazolecarboxylic acid]",52%,
7.34,"Cc1nc(-c2ccc(OCC3CCCCC3)cc2)sc1C(=O)O [Example 7, 2-(4-Cyclohexylmethyloxyphenyl)-4-methyl-5-thiazolecarboxylic acid]",39%,
9.49,"CCCCCCOc1ccc(-c2nc(C)c(C(=O)O)s2)cc1[N+](=O)[O-] [Example 41, 2-(4-n-Hexyloxy-3-nitrophenyl)-4-methyl-5-thiazolecarboxylic acid]",,92%
8.49,"Cc1nc(-c2ccc(C(=O)O)cc2)sc1C(=O)O [Example 14, 2-(4-Carboxyphenyl)-4-methyl-5-thiazolecarboxylic acid]",35%,
8.66,"Cc1nc(-c2ccc(OCCC(C)C)c(C#N)c2)sc1C(=O)O [Example 79, 2-(3-Cyano-4-isopentyloxyphenyl)-4-methyl-5-thiazolecarboxylic acid]",,89%
8.57,"CCC(CC)COc1ccc(-c2nc(C)c(C(=O)O)s2)cc1Cl [Example 53, 2-(3-Chloro-4-(2-ethylbutyloxy)phenyl)-4-methYl-5-thiazolecarboxylic acid]",,29%
8.70,"Cc1nc(-c2ccc(Sc3ccc(Cl)cc3)c(Cl)c2)sc1C(=O)O [Example 61, 2-(3-Chloro-4-(4-chlorophenylthio)phenyl)-4-methyl-5-thiazolecarboxylic acid]",,32%
9.92,"Cc1nc(-c2ccc(OCC(C)(C)C)c(I)c2)sc1C(=O)O [Example 85, 2-(3-iodo-4-neopentyloxyphenyl)-4-methyl-5-thiazolecarboxylic acid]",,77%
8.72,"CCOCCOc1ccc(-c2nc(C)c(C(=O)O)s2)cc1C#N [Example 80, 2-(3-CYano-4-(2-ethoxyethyloxy)phenyl)-4-methyl-5-thiazolecarboxylic acid]",,87%
6.82,"Cc1nc(-c2cccc(C(=O)Nc3ccc(Cl)cc3)c2)sc1C(=O)O [Example 15, 2-(3-(4-chlorophenylcarbamoyl)phenyl)-4-methyl-5-thiazolecarboxylic acid]",38%,
7.35,"CC(C)Oc1ccc(-c2nc(O)c(C(=O)O)s2)cc1 [Example 22, 4-Hydroxy-2-(4-isopropoxyphenyl)-5-thiazolecarboxylic acid]",45%,
7.11,"Cc1nc(-c2ccc(OCC(=O)O)cc2)sc1C(=O)O [Example 11, 2-(4-Carboxymethyloxyphenyl)-4-methyl-5-thiazolecarboxylic acid]",23%,
8.49,"Cc1nc(-c2ccc(OCCCC3CCCCC3)cc2)sc1C(=O)O [Example 8, 2-(4-(3-Cyclohexylpropyloxy)phenyl)-4-methyl-5-thiazolecarboxylic acid]",,28%
8.66,"Cc1nc(-c2cc(Cl)c(OC(C)C)c(Cl)c2)sc1C(=O)O [Example 68, 2-(3,5-dichloro-4-isopropoxyphenyl)-4-methyl-5-thiazolecarboxylic acid]",,13%
8.70,"CCC(CC)COc1ccc(-c2nc(C)c(C(=O)O)s2)cc1[N+](=O)[O-] [Example 42, 2-(4-(2-Ethylbutyloxy)-3-nitrophenyl)-4-methyl-5-thiazolecarboxylic acid]",,75%
8.82,"Cc1nc(-c2ccc(OCCN3CCOCC3)c(Cl)c2)sc1C(=O)O [Example 56, 2-(3-Chloro-4-(2-morpholinoethyloxy)phenyl)-4-methyl-5-thiazolecarboxylic acid]",,50%
7.92,"Cc1nc(-c2ccc(OCCCCC(=O)O)cc2)sc1C(=O)O [Example 12, 2-(4-(4-Carboxybutyloxy)phenyl)-4-methyl-5-thiazolecarboxylic acid]",42%,

pIC50 (xanthine oxidase),SMILES,inhibition at 1 µM (interleukin 1 production),inhibition in vivo at 1 mg/kg (serum uric acid)
9.10,"CCC(CC)COc1c(Cl)cc(-c2nc(C)c(C(=O)O)s2)cc1Cl [Example 70, 2-(3,5-Dichloro-4-(2-ethylbutyloxy)phenyl)-4-methyl-5-thiazolecarboxylic acid]",,15%
8.62,"Cc1nc(-c2ccc(N3CCN(C)CC3)c([N+](=O)[O-])c2)sc1C(=O)O [Example 46, 4-methyl-2-(4-(4-methylpiperazinyl)-3-nitrophenyl)-5-thiazolecarboxylic acid]",,75%
8.96,"Cc1nc(-c2ccc(OCC(C)C)c(C(F)(F)F)c2)sc1C(=O)O [Example 83, 2-(4-isobutyloxy-3-trifluomethylphenyl)-4-methyl-5-thiazolecarboxylic acid]",,86%
7.37,"Cc1nc(-c2ccc(N(C)C)cc2)sc1C(=O)O [Example 18, 2-(4-(N,N-dimethylamino)phenyl)-4-methyl-5-thiazolecarboxylic acid]",,22%
9.24,"Cc1nc(-c2ccc(OC(C)C)c([N+](=O)[O-])c2)sc1C(=O)O [Example 31, 2-(4-isopropoxy-3-nitrophenyl)-4-methyl-5-thiazolecarboxylic acid]",,90%
8.82,"Cc1nc(-c2cc(Cl)c(OCC(C)C)c(Cl)c2)sc1C(=O)O [Example 69, 2-(3,5-Dichloro-4-isobutyloxyphenyl)-4-methyl-5-thiazolecarboxylic acid]",,55%
8.74,CCN(CC)c1ccc(-c2nc(C)c(C(=O)O)s2)cc1[N+](=O)[O-] [Example 37],,74%
8.15,"CCOCCOc1ccc(-c2nc(C)c(C(=O)O)s2)cc1Cl [Example 55, 2-(3-Chloro-4-(2-ethoxyethyloxy)phenyl)-4-methyl-5-thiazolecarboxylic acid]",,45%
9.52,"Cc1nc(-c2ccc(SC(C)C)c([N+](=O)[O-])c2)sc1C(=O)O [Example 35, 2-(4-isopropylthio-3-nitrophenyl)-4-methyl-5-thiazolecarboxylic acid]",,57%
9.20,"Cc1nc(-c2ccc(N3CCCCC3)c(Br)c2)sc1C(=O)O [Example 66, 2-(3-Bromo-4-piperidinophenyl)-4-methyl-5-thiazolecarboxylic acid]",,65%
8.54,"Cc1nc(-c2ccc(OCC(C)(C)C)c(C(F)(F)F)c2)sc1C(=O)O [Example 84, 4-Methyl-2-(4-neopentyloxy-3-trifluoromethylphenyl)-5-thiazolecarboxylic acid]",,80%
9.29,"Cc1nc(-c2ccc(OCC(C)C)c(C=O)c2)sc1C(=O)O [Example 86, 2-(3-formyl-4-isobutyloxyphenyl)-4-methyl-5-thiazolecarboxylic acid]",,72%
8.54,"CCOCCOc1ccc(-c2nc(C)c(C(=O)O)s2)cc1[N+](=O)[O-] [Example 39, 2-(4-(2-Ethoxyethyloxy)-3-nitrophenyl)-4-methyl-5-thiazolecarboxylic acid]",,82%
8.72,"Cc1nc(-c2ccc(OCC(C)(C)C)c(C#N)c2)sc1C(=O)O [Example 78, 2-(3-Cyano-4-neopentyloxyphenyl)-4-methyl-5-thiazolecarboxylic acid]",,91%
8.80,"Cc1nc(-c2ccc(Sc3ccc(Cl)cc3)c(Br)c2)sc1C(=O)O [Example 65, 2-(3-Bromo-4-(4-chlorophenylthio)phenyl)-4-methyl-5-thiazolecarboxylic acid]",,42%
9.19,"Cc1nc(-c2ccc([S+]([O-])c3ccc(Cl)cc3)c(Cl)c2)sc1C(=O)O (stereo not drawn) [Example 62, 2-(3-chloro-4-(4'-chlorophenylsulfinyl)phenyl)-4-methyl-5thiazolecarboxylic acid]",,35%
8.57,"Cc1nc(-c2ccc(N3CCCCC3)c(C#N)c2)sc1C(=O)O [Example 82, 2-(3-Cyano-4-piperidinophenyl)-4-methyl-5-thiazolecarboxylic acid]",,93%
8.92,"Cc1nc(-c2ccc(OCCN3CCCCC3)c(Cl)c2)sc1C(=O)O [Example 57, 2-(3-Chloro-4-(2-piperidinoethyloxy)phenyl)-4-methyl-5-thiazolecarboxylic acid]",,15%
